According to patent US20190263796A1, “LIM KINASE INHIBITORS, PHARMACEUTICAL COMPOSITION AND METHOD OF USE IN LIMK-MEDIATED DISEASES” (CELLIPSE, priority 2016, published 2019):
Read-outs that look alike come from different tables or passages of the source.

Tests used:
[1] = tested on: Phospho-Ser3-Cofilin/Total Cofilin; assay: Western blot cofilin phosphorylation, HL-60; assay type: cell-based; conditions: HL-60 cells, 2 h
Method: (§1) HL-60 cell line was originally purchased from the Leibniz-Institut Deutsche Sammlung von Mikroorganismen und Zellkulturen GmbH (DSMZ). HL-60 cells are cultured in RPMI 1640 10% (v/v) FBS supplemented with 100 U/mL^−1 penicillin, 0.1 mg·mL^−1 streptomycin (PAN Biotech P06-07100). Cells were maintained at 37° C. with 5% CO2.
(§2) In a 6 wells plate (Falcon 353046), 2·10^6 cells in 1.5 mL medium are treated for 2 h with compounds. Cells are then collected and cell lysis is performed at 4° C. using RIPA buffer supplemented with protease inhibitors cocktail (Sigma-Aldrich P8340) and phosphatase inhibitors cocktail (Sigma-Aldrich P5726). Following centrifugation 30 min 15000 g 4° C., supernatants are mixed with Laemmli buffer and denaturation is performed by heating 5 min 95° C. 10 μL of samples are subjected to electrophoresis on 15% SDS-PAGE. After electro-transfer (Mini Transblot, Bio-Rad), the PVDF membrane (Merck-Millipore Immobilon P IPVH00010) is blocked with Tris Buffered Saline, pH 7.4 (TBS) with 0.1% Tween 20 and 5% BSA for 1 h RT under agitation. The membrane was rinsed 3 times 10 min at room temperature under agitation with TBS, 0.1% Tween-20 (TBST) and then 1 h at room temperature with anti-phospho-Ser3-cofilin (Cell Signaling Technology #3313, 1/1000 dilution) antibody or anti-cofilin (Cell Signaling Technology #3312, 1/1000 dilution) diluted in TBS, 0.1% Tween 20 and 1% BSA. The membrane is then rinsed 3 times 10 min at room temperature under agitation in TBST and incubated for 1 h with anti-rabbit secondary antibody, horseradish peroxidase conjugated (Jackson Immunoresearch #711-036-152) under agitation at room temperature. After three washes 10 min at room temperature in TBST, the detection of total or phosphorylated cofilin was performed using chemiluminescence kit ECL™ Plus (GE Healthcare RPN2132). For each concentration of compound, ratio between phosphorylated cofilin and total cofilin is determined. This ratio is then expressed as percentage of control ratio (i.e., ratio from DMSO treated cells). IC50 Phospho-Ser3-Cofilin/Total Cofilin is then determined.

[2] = tested on: Phospho-Ser3-Cofilin/Total Cofilin; assay: Western blot cofilin phosphorylation, MOLM-13; assay type: cell-based; conditions: Homo sapiens, MOLM-13 cells
Method: as §1, with “MOLM-13” for “HL-60”, “20%” for “10%”
as §2

[3] = tested on: P-MEK/Total MEK; assay: Western blot MEK1 phosphorylation, MOLM-14; assay type: cell-based; conditions: for IC50: 2 h; for Selectivity ratio: IC50 P-MEK/Total MEK divided by IC50 Phospho-Ser3-Cofilin/Total Cofilin
Method: MOLM-14 cell line was originally purchased from the American Type Culture Collection (ATCC). MOLM-14 cells are cultured in MEM alpha 10% (v/v) FBS supplemented with 100 U/mL^−1 penicillin, 0.1 mg·mL^−1 streptomycin (PAN Biotech P06-07100). Cells were maintained at 37° C. with 5% CO2.
(§3) In a 6 wells plate (Falcon 353046), 2·10^6 cells in 1.5 mL medium are treated for 2 h with compounds. Cells are then collected and cell lysis is performed at 4° C. using RIPA buffer supplemented with protease inhibitors cocktail (Sigma-Aldrich P8340) and phosphatase inhibitors cocktail (Sigma-Aldrich P5726). Following centrifugation 30 min 15000 g 4° C., supernatants are mixed with Laemmli buffer and denaturation is performed by heating 5 min 95° C. 10 μL of samples are subjected to electrophoresis on 15% SDS-PAGE. After electro-transfer (Mini Transblot, Bio-Rad), the PVDF membrane (Merck-Millipore Immobilon P IPVH00010) is blocked with Tris Buffered Saline, pH 7.4 (TBS) with 0.1% Tween 20 and 5% BSA for 1 h at room temperature under agitation. The membrane was rinsed 3 times 10 min at room temperature under agitation with TBS, 0.1% Tween-20 (TBST) and then 1 h at room temperature with anti-phospho-Ser218/222-MEK1 (Merck-Millipore 07-461, 1/1000 dilution) antibody or anti-MEK1 (Merck-Millipore 07-641, 1/1000 dilution) diluted in TBS, 0.1% Tween 20 and 1% BSA. The membrane is then rinsed 3 times 10 min RT under agitation in TBST and incubated for 1 h with anti-rabbit secondary antibody, horseradish peroxidase conjugated (Jackson Immunoresearch #711-036-152) under agitation at room temperature. After three washes 10 min at room temperature in TBST, the detection of total or phosphorylated cofilin was performed using chemiluminescence kit ECL™ Plus (GE Healthcare RPN2132). For each concentration of compound, ratio between phosphorylated cofilin and total cofilin is determined. This ratio is then expressed as percentage of control ratio (i.e., ratio from DMSO treated cells). IC50 P-MEK/Total MEK is then determined.
(§4) Selectivity ratios are calculated by dividing the IC50 P-MEK/Total MEK value (μM) by the IC50 Phospho-Ser3-Cofilin/Total Cofilin value (μM).

[4] = tested on: P-MEK/Total MEK; assay: Western blot MEK1 phosphorylation, HL-60; assay type: cell-based; conditions: HL-60 cells; for IC50: 2 h, read-out: IC50 P-MEK/Total MEK; for Selectivity ratio: IC50 P-MEK/Total MEK divided by IC50 Phospho-Ser3-Cofilin/Total Cofilin
Method: as §1, §3, §4

[5] = tested on: P-MEK/Total MEK; assay: Western blot MEK1 phosphorylation, MOLM-13; assay type: cell-based; conditions: for IC50: Homo sapiens, read-out: IC50 P-MEK/Total MEK
Method: as §1, with “MOLM-13” for “HL-60”, “20%” for “10%”
as §3, §4

[6] = biological target: B-Raf(h) (Homo sapiens, UniProt P15056); assay: B-Raf kinase assay (Eurofins Panlabs, radiometric); assay type: biochemical; parameters: purchased Eurofins Panlabs Inc. (contract assay service)
Sequence of B-Raf(h) (P15056 whole entry): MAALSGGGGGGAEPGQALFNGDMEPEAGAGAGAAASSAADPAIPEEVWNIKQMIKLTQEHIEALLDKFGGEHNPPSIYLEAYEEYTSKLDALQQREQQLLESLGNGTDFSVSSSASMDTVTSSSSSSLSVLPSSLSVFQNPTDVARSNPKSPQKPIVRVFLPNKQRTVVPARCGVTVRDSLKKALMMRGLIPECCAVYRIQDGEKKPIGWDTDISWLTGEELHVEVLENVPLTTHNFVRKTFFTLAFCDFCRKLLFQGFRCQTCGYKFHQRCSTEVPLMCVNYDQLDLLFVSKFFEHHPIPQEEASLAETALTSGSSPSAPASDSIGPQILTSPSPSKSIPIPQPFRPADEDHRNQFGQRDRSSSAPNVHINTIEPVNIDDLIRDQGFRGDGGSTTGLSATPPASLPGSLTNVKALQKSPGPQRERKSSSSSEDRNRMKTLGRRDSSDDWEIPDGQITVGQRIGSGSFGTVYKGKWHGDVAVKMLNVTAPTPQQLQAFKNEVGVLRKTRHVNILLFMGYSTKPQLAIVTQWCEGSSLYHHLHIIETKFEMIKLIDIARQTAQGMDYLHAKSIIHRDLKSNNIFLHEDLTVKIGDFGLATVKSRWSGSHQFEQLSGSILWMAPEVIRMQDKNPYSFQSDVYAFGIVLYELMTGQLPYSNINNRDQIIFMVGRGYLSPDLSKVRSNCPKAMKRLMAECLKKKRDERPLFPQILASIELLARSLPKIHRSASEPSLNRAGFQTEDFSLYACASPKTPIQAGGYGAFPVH
Method: IC50 B-Raf is then determined.
Selectivity ratios are calculated by dividing the IC50 B-Raf (nM) by the IC50 LIMK1 (nM).

[7] = tested on: Phospho-Ser3-Cofilin/Total Cofilin; assay: Western blot cofilin phosphorylation, THP-1; assay type: cell-based; conditions: Homo sapiens; THP-1 cells; 2 h
Method: as §1, with “THP-1” for “HL-60”, “20%” for “10%”
In a 6 wells plate (Falcon 353046), 2·10^6 cells in 1.5 mL medium are treated for 2 h with compounds. Cells are then collected and cell lysis is performed at 4° C. using RIPA buffer supplemented with protease inhibitors cocktail (Sigma-Aldrich P8340) and phosphatase inhibitors cocktail (Sigma-Aldrich P5726). Following centrifugation 30 min 15000 g 4° C., supernatants are mixed with Laemmli buffer and denaturation is performed by heating 5 min 95° C. 10 μL of samples are subjected to electrophoresis on 15% SDS-PAGE. After electro-transfer (Mini Transblot, Bio-Rad), the PVDF membrane (Merck-Millipore Immobilon P IPVH00010) is blocked with Tris Buffered Saline, pH 7.4 (TBS) with 0.1% Tween 20 and 5% BSA for 1 h RT under agitation. […] For each concentration of compound, ratio between phosphorylated cofilin and total cofilin is determined. This ratio is then expressed as percentage of control ratio (i.e., ratio from DMSO treated cells). IC50 Phospho-Ser3-Cofilin/Total Cofilin is then determined.

[8] = 120 μM ATP, Table 8, read-out: IC50 B-Raf
[9] = IC50 B-Raf (nM) divided by IC50 LIMK1 (nM), Table 8

`O=S(=O)(Nc1cccc(-c2nc(CCO)sc2-c2ccnc(Nc3ccccc3)n2)c1F)c1c(F)cccc1F` [8 (Na)] was tested, and the IC50 [1] was < 200 nM, the IC50 ([2]; 2 h) was < 200 nM and the IC50 ([3]; MOLM-14 cells, read-out: IC50 P-MEK/Total MEK) was > 1000 nM. For the same molecule, the Selectivity ratio ([3]; MOLM-14 cells) was 30, the IC50 [4] was > 1000 nM and the Selectivity ratio [4] was 42. The IC50 ([5]; MOLM-13 cells, 2 h) was > 1000 nM, the Selectivity ratio ([5]; MOLM-13 cells, IC50 P-MEK/Total MEK divided by IC50 Phospho-Ser3-Cofilin/Total Cofilin) was 42 and the IC50 [6, 8] was 10 to 100 nM. It also gave a Selectivity ratio [6, 9] of 9.

With `CC(C)(C)c1nc(-c2cccc(NS(=O)(=O)c3c(F)cccc3F)c2F)c(-c2ccnc(Nc3ccccc3)n2)s1` [Compound 1, N-(3-(2-(tert-butyl)-5-(2-(phenylamino)pyrimidin-4-yl)thiazol-4-yl)-2-fluorophenyl)-2,6-difluorobenzenesulfonamide] the IC50 ([3]; Homo sapiens, MOLM-14, 2 h, read-out: IC50 P-MEK/Total MEK, MOLM-14 cells) was > 1000 nM, the Selectivity ratio ([3]; MOLM-14 cells) was 40 and the “selectivity ratio for LIMK1 over B-Raf” value ([6]; IC50 B-Raf (nM) divided by IC50 LIMK1 (nM)) was “about 20”. For the same molecule, the Selectivity ratio [6, 9] was 8, the IC50 ([6]; IC50 B-Raf, 120 μM ATP, Table 8) was 10 to 100 nM and the IC50 ([6]; IC50 B-Raf, Table 5) was 500 to 5000 nM.

In the case of `O=S(=O)(Nc1cccc(-c2nc(CCO)sc2-c2ccnc(Nc3ccccc3)n2)c1F)c1c(F)cccc1F` [Compound 8, 2,6-difluoro-N-(2-fluoro-3-(2-(2-hydroxyethyl)-5-(2-(phenylamino)pyrimidin-4-yl)thiazol-4-yl)phenyl)benzenesulfonamide], the IC50 [7] is reported as < 200 nM, the IC50 ([1]; Homo sapiens) is reported as < 200 nM and the IC50 ([3]; Homo sapiens, MOLM-14 cells, read-out: IC50 P-MEK/Total MEK) is reported as > 1000 nM. The Selectivity ratio ([3]; MOLM-14 cells) was 100, the Selectivity ratio [4] was 31 and the IC50 ([4]; Homo sapiens) was > 1000 nM.

In the case of `CNC(=O)Cc1nc(-c2cccc(NS(=O)(=O)c3c(F)cccc3F)c2F)c(-c2ccnc(Nc3ccccc3)n2)s1` [Compound 9, 2-(4-(3-(2,6-difluorophenylsulfonamido)-2-fluorophenyl)-5-(2-(phenylamino)pyrimidin-4-yl)thiazol-2-yl)-N-methylacetamide], the IC50 [7] is reported as < 200 nM, the IC50 ([2]; MOLM-13, 2 h) is reported as < 200 nM and the IC50 ([3]; read-out: IC50 P-MEK/Total MEK, MOLM-14 cells) is reported as > 1000 nM. The IC50 ([5]; MOLM-13, 2 h) was > 1000 nM and the IC50 [6, 8] was 10 to 100 nM.
